# Laboratory results taken from PubChem BioAssay (NCI).
#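 Following 48 hours of exposure in 96-well plates, responses at five concentrations were used to interpolate endpoints linearly. GI50 = concentration required for 50% inhibition of growth. TGI is the concentration that stops growth completely.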
# Columns and labels:
# Experiment in all cases: DTP human tumour cell line panel, 48 h
# SF-268 CNS = test system: SF-268 CNS
# HS 578T breast = test system: HS 578T breast
# SNB-75 CNS = test system: SNB-75 CNS
# SK-MEL-5 melanoma = test system: SK-MEL-5 melanoma
# IGROV1 ovarian = test system: IGROV1 ovarian
# ACHN renal = test system: ACHN renal
# SF-295 CNS = test system: SF-295 CNS
# U251 CNS = test system: U251 CNS
# NCI/ADR-RES ovarian = test system: NCI/ADR-RES ovarian
# OVCAR-5 ovarian = test system: OVCAR-5 ovarian
# RXF 393 renal = test system: RXF 393 renal
# HOP-62 NSCLC = test system: HOP-62 NSCLC
# SW-620 colon = test system: SW-620 colon
# UACC-62 melanoma = test system: UACC-62 melanoma
# HOP-92 NSCLC = test system: HOP-92 NSCLC
# SF-539 CNS = test system: SF-539 CNS
# PC-3 prostate = test system: PC-3 prostate
# TK-10 renal = test system: TK-10 renal
# BT-549 breast = test system: BT-549 breast
# A549 NSCLC = test system: A549 NSCLC
# NCI-H23 lung = test system: NCI-H23 lung
# OVCAR-8 ovarian = test system: OVCAR-8 ovarian
# CCRF-CEM leukemia = test system: CCRF-CEM leukemia
# UACC-257 melanoma = test system: UACC-257 melanoma
# SK-MEL-28 melanoma = test system: SK-MEL-28 melanoma
# DU-145 prostate = test system: DU-145 prostate
# OVCAR-4 ovarian = test system: OVCAR-4 ovarian
# SN12C renal = test system: SN12C renal
# NCI-H460 lung = test system: NCI-H460 lung
# SNB-19 CNS = test system: SNB-19 CNS
# UO-31 renal = test system: UO-31 renal
# SK-MEL-2 melanoma = test system: SK-MEL-2 melanoma
# 786-0 renal = test system: 786-0 renal
# HT29 colon = test system: HT29 colon
# MDA-MB-231 breast = test system: MDA-MB-231 breast
# A498 renal = test system: A498 renal
# HL-60(TB) leukemia = test system: HL-60(TB) leukemia
# CAKI-1 renal = test system: CAKI-1 renal
# K-562 leukemia = test system: K-562 leukemia
# RPMI-8226 leukemia = test system: RPMI-8226 leukemia
# MDA-MB-435 = test system: MDA-MB-435
# KM12 colon = test system: KM12 colon
# SK-OV-3 ovarian = test system: SK-OV-3 ovarian
# SR leukemia = test system: SR leukemia
# HCT-15 colon = test system: HCT-15 colon
# HCC-2998 colon = test system: HCC-2998 colon
# NCI-H226 lung = test system: NCI-H226 lung
# MOLT-4 leukemia = test system: MOLT-4 leukemia
# OVCAR-3 ovarian = test system: OVCAR-3 ovarian
# EKVX NSCLC = test system: EKVX NSCLC
# MALME-3M melanoma = test system: MALME-3M melanoma
compound,measurement,setting,value
CC(=O)Nc1ccc(NC(=O)Nc2cccc(-c3nc(-c4ccc(NC(=O)c5cccnc5)cc4Cl)no3)c2)cc1C(F)(F)F,GI50,SF-268 CNS,1100 nM
same,TGI,SF-268 CNS,3380 nM
same,GI50,HS 578T breast,503 nM
same,TGI,HS 578T breast,2990 nM
same,GI50,SNB-75 CNS,217 nM
same,TGI,SNB-75 CNS,814 nM
same,GI50,SK-MEL-5 melanoma,612 nM
same,TGI,SK-MEL-5 melanoma,1930 nM
same,GI50,IGROV1 ovarian,739 nM
same,TGI,IGROV1 ovarian,2340 nM
same,GI50,ACHN renal,6040 nM
same,TGI,ACHN renal,> 100000 nM
same,GI50,SF-295 CNS,454 nM
same,TGI,SF-295 CNS,1370 nM
same,GI50,U251 CNS,564 nM
same,TGI,U251 CNS,2260 nM
same,GI50,NCI/ADR-RES ovarian,> 100000 nM
same,TGI,NCI/ADR-RES ovarian,> 100000 nM
same,GI50,OVCAR-5 ovarian,987 nM
same,TGI,OVCAR-5 ovarian,2640 nM
same,GI50,RXF 393 renal,359 nM
same,TGI,RXF 393 renal,1130 nM
same,GI50,HOP-62 NSCLC,739 nM
same,TGI,HOP-62 NSCLC,2700 nM
same,GI50,SW-620 colon,430 nM
same,TGI,SW-620 colon,1860 nM
same,GI50,UACC-62 melanoma,412 nM
same,TGI,UACC-62 melanoma,1630 nM
same,GI50,HOP-92 NSCLC,1280 nM
same,TGI,HOP-92 NSCLC,3010 nM
same,GI50,SF-539 CNS,341 nM
same,TGI,SF-539 CNS,1250 nM
same,GI50,PC-3 prostate,477 nM
same,TGI,PC-3 prostate,2180 nM
same,GI50,TK-10 renal,1990 nM
same,TGI,TK-10 renal,4670 nM
same,GI50,BT-549 breast,1120 nM
same,TGI,BT-549 breast,3040 nM
same,GI50,A549 NSCLC,1070 nM
same,TGI,A549 NSCLC,4430 nM
same,GI50,NCI-H23 lung,601 nM
same,TGI,NCI-H23 lung,2190 nM
same,GI50,OVCAR-8 ovarian,712 nM
same,TGI,OVCAR-8 ovarian,3250 nM
same,GI50,CCRF-CEM leukemia,395 nM
same,TGI,CCRF-CEM leukemia,> 100000 nM
same,GI50,UACC-257 melanoma,1130 nM
same,TGI,UACC-257 melanoma,2930 nM
same,GI50,SK-MEL-28 melanoma,890 nM
same,TGI,SK-MEL-28 melanoma,2200 nM
same,GI50,DU-145 prostate,519 nM
same,TGI,DU-145 prostate,4320 nM
same,GI50,OVCAR-4 ovarian,1070 nM
same,TGI,OVCAR-4 ovarian,2620 nM
same,GI50,SN12C renal,685 nM
same,TGI,SN12C renal,2120 nM
same,GI50,NCI-H460 lung,411 nM
same,TGI,NCI-H460 lung,1480 nM
same,GI50,SNB-19 CNS,477 nM
same,TGI,SNB-19 CNS,2150 nM
same,GI50,UO-31 renal,4300 nM
same,TGI,UO-31 renal,> 35700 nM
same,GI50,SK-MEL-2 melanoma,1270 nM
same,TGI,SK-MEL-2 melanoma,3290 nM
same,GI50,786-0 renal,1120 nM
same,TGI,786-0 renal,2720 nM
same,GI50,HT29 colon,380 nM
same,TGI,HT29 colon,1690 nM
same,GI50,MDA-MB-231 breast,658 nM
same,TGI,MDA-MB-231 breast,2330 nM
same,GI50,A498 renal,435 nM
same,TGI,A498 renal,1510 nM
same,GI50,HL-60(TB) leukemia,307 nM
same,TGI,HL-60(TB) leukemia,1130 nM
same,GI50,CAKI-1 renal,570 nM
same,TGI,CAKI-1 renal,1970 nM
same,GI50,K-562 leukemia,320 nM
same,TGI,K-562 leukemia,1760 nM
same,GI50,RPMI-8226 leukemia,538 nM
same,TGI,RPMI-8226 leukemia,2900 nM
same,GI50,MDA-MB-435,174 nM
same,TGI,MDA-MB-435,406 nM
same,GI50,KM12 colon,438 nM
same,TGI,KM12 colon,1790 nM
same,GI50,SK-OV-3 ovarian,1290 nM
same,TGI,SK-OV-3 ovarian,3030 nM
same,GI50,SR leukemia,296 nM
same,TGI,SR leukemia,2350 nM
same,GI50,HCT-15 colon,2080 nM
same,TGI,HCT-15 colon,> 100000 nM
same,GI50,HCC-2998 colon,998 nM
same,TGI,HCC-2998 colon,2560 nM
same,GI50,NCI-H226 lung,729 nM
same,TGI,NCI-H226 lung,2240 nM
same,GI50,MOLT-4 leukemia,620 nM
same,TGI,MOLT-4 leukemia,3000 nM
same,GI50,OVCAR-3 ovarian,382 nM
same,TGI,OVCAR-3 ovarian,1420 nM
same,GI50,EKVX NSCLC,1400 nM
same,TGI,EKVX NSCLC,9160 nM
same,GI50,MALME-3M melanoma,479 nM
same,TGI,MALME-3M melanoma,1740 nM
